Experimental data reported in patent US20250092056A1, “URACIL DERIVATIVES HAVING VIRUS REPLICATION INHIBITORY ACTIVITY AND PHARMACEUTICAL COMPOSITION COMPRISING THE SAME” (Shionogi & Co., Ltd., priority 2022, published 2025).
Read-outs that look alike come from different tables or passages of the source.

Key:
[1] = system: SARS-CoV-2; assay: Cytopathic effect (CPE) suppression effect confirmation test using HEK293T/ACE2-TMPRSS2 cells; type: cell-based; conditions: Severe acute respiratory syndrome coronavirus 2, HEK-293T
[2] = target: Recombinant SARS-CoV-2 3CL Protease (Severe acute respiratory syndrome coronavirus 2 (2019-nCoV) (SARS-CoV-2), UniProt P0DTD1); assay: biochemical; type: biochemical; conditions: 50% SARS-CoV-2 3CL protease inhibitory concentration; read-out: IC50
[3] = 72 h, read-out: EC50 (50% SARS-CoV-2 infected cell death inhibitory concentration), class, HEK293T/ACE2-TMPRSS2 cells, CPE suppression, CellTiter-Glo 2.0 after 3 days culture
[4] = 50% SARS-CoV-2 infected cell death inhibitory concentration, HEK293T/ACE2-TMPRSS2 cells, read-out: EC50
[5] = 72 h, HEK293T/ACE2-TMPRSS2 cells, CPE suppression, CellTiter-Glo 2.0 after 3 days culture, read-out: EC50 (50% SARS-CoV-2 infected cell death inhibitory concentration), class

| SMILES | EC50 [1, 3] [nM] | IC50 [2] [nM] | EC50 [1, 4] [nM] | EC50 [1, 5] [nM] | EC50 ([1]; 72 h, read-out: EC50 (50% SARS-CoV-2 infected cell death inhibitory concentration), HEK293T/ACE2-TMPRSS2 cells, CPE suppression, CellTiter-Glo 2.0 after 3 days culture) [nM] |
| --- | --- | --- | --- | --- | --- |
| CC1(C)CCN(c2c(-c3cccc(C#N)c3)c(=O)n(-c3cncc(Cl)c3)c(=O)n2CC#N)CC1 [Compound I-176] | < 100 | < 10 | – | – | – |
| Cn1ccc(-c2c(-c3ccc(F)c(Cl)c3)c(=O)n(-c3cncc(Cl)c3)c(=O)n2CC#N)n1 [Compound I-302] | – | < 10 | < 100 | – | – |
| N#CCn1c(N2CC3(C2)CC(F)(F)C3)c(-c2ccc(F)c(Cl)c2)c(=O)n(-c2cncc(OC(F)F)n2)c1=O [Compound I-332] | – | < 10 | < 100 | – | – |
| N#CCn1c(N2CC(O)(C(F)F)C2)c(-c2cc(F)c(F)c(Cl)c2)c(=O)n(-c2cncc(Cl)c2)c1=O [Compound I-333] | – | < 10 | < 100 | – | – |
| N#CCn1c(C2CC(O)C2)c(-c2ccc(F)c(Cl)c2)c(=O)n(-c2cncc(Cl)c2)c1=O (stereo not drawn) [Compound I-371] | – | < 10 | < 100 | – | – |
| Cc1cncc(-n2c(=O)c(Cc3cc(F)c(F)c(F)c3)c(-c3ccc(C(F)(F)F)c(Cl)c3)n(CC#N)c2=O)c1 [Compound I-031] | < 100 | < 10 | – | – | – |
| C[C@@H](C#N)n1c(N2CC[C@](O)(C(F)F)C2)c(-c2ccc(F)c(Cl)c2)c(=O)n(-c2cncc(Cl)c2)c1=O (single isomer, unassigned) [Compound I-431] | – | < 10 | < 100 | – | – |
| N#CCn1c(N2CC3(CCOC3)C2)c(-c2ccccc2)c(=O)n(-c2cncc(Cl)c2)c1=O [Compound I-171] | < 100 | < 10 | – | – | – |
| Cc1cncc(-n2c(=O)c(Cc3cc(F)c(F)c(F)c3)c(N3CC4(CCOC4)C3)n(CC#N)c2=O)c1 [Compound I-101] | < 100 | < 10 | – | – | – |
| N#CCn1c(N2CC3(CCOC3)C2)c(-c2ccc(F)c(Cl)c2)c(=O)n(-c2cnc3ccccn23)c1=O [Compound I-043] | – | 10 to 100 | – | 100 to 1000 | – |
| N#CCn1c(N2CC[C@@](O)(C(F)F)C2)c(-c2ccc(F)c(Cl)c2)c(=O)n(-c2cncc(Cl)c2)c1=O (single isomer, unassigned) [Compound I-238] | – | 0.97 | – | – | 4.62 |
| CC1(O)CN(c2c(-c3ccc(F)c(Cl)c3)c(=O)n(-c3cncc(OC(F)F)n3)c(=O)n2CC#N)C1 [Compound I-354] | – | < 10 | < 100 | – | – |
| N#CCn1c(N2CC3(C2)CC(F)(F)C3)c(-c2ccc(F)c(Cl)c2)c(=O)n(-c2cc(Cl)c[n+]([O-])c2)c1=O [Compound I-426] | – | < 10 | < 100 | – | – |
| Cc1cncc(-n2c(=O)c(-c3ccc(F)c(Cl)c3)c(N3Cc4cccnc4C3)n(CC#N)c2=O)c1 [Compound I-075] | < 100 | < 10 | – | – | – |
| Cc1cncc(-n2c(=O)c(Cc3cc(F)c(F)c(F)c3)c(N3CCC4(CCC(=O)N4)C3)n(CC#N)c2=O)c1 (racemic) [Compound I-094] | – | 10 to 100 | – | 100 to 1000 | – |
| COCC1CN(c2c(-c3ccc(F)c(Cl)c3)c(=O)n(-c3cncc(C(F)F)n3)c(=O)n2CC#N)C1 [Compound I-389] | – | < 10 | < 100 | – | – |
| N#CCn1c(N2CCC(F)(F)CC2)c(-c2ccc(F)c(F)c2)c(=O)n(-c2cncc(Cl)c2)c1=O [Compound I-401] | – | < 10 | < 100 | – | – |
| Cc1cncc(-n2c(=O)c(Cc3cc(F)c(F)c(F)c3)c(N3CCCC(C(F)(F)F)C3)n(CC#N)c2=O)c1 (racemic) [Compound I-097] | < 100 | < 10 | – | – | – |
| N#CCn1c(N2CC(O)C2)c(-c2ccc(F)c(C(F)F)c2)c(=O)n(-c2cncc(C#N)c2)c1=O [Compound I-416] | – | < 10 | < 100 | – | – |
| Cc1cncc(-n2c(=O)c(-c3ccc(F)c(Cl)c3)c(Cl)n(CC#N)c2=O)c1 [Compound I-015] | 100 to 1000 | < 10 | – | – | – |
| Cc1cncc(-n2c(=O)c(-c3ccc(F)c(Cl)c3)c(N3C[C@@H]4C[C@H]3CO4)n(CC#N)c2=O)c1 [Compound I-225] | – | < 10 | < 100 | – | – |
| Cc1cncc(-n2c(=O)c(-c3ccc(F)c(Cl)c3)c(Oc3cccc4ccccc34)n(CC#N)c2=O)c1 [Compound I-029] | < 100 | < 10 | – | – | – |
| Cc1cncc(-n2c(=O)c(-c3cccc(Cl)c3)c(N3Cc4ccccc4C3)n(CC#N)c2=O)c1 [Compound I-042] | < 100 | < 10 | – | – | – |
| Cc1cncc(-n2c(=O)c(-c3ccc(F)c(Cl)c3)c(N3CCC4(CCNC4=O)CC3)n(CC#N)c2=O)c1 [Compound I-044] | 100 to 1000 | < 10 | – | – | – |
| N#CCn1c(N2CC3(CCOC3)C2)c(C2=CCCCC2)c(=O)n(-c2cncc(Cl)c2)c1=O [Compound I-264] | – | < 10 | < 100 | – | – |
| N#CCn1c(N2CC3(C2)CC(F)(F)C3)c(-c2ccc(F)c(C(F)F)c2)c(=O)n(-c2cncc(Cl)c2)c1=O [Compound I-339] | – | < 10 | < 100 | – | – |

| SMILES | EC50 [1, 3] [nM] | IC50 [2] [nM] | EC50 [1, 4] [nM] | EC50 [1, 5] [nM] | EC50 ([1]; 72 h, read-out: EC50 (50% SARS-CoV-2 infected cell death inhibitory concentration), HEK293T/ACE2-TMPRSS2 cells, CPE suppression, CellTiter-Glo 2.0 after 3 days culture) [nM] |
| --- | --- | --- | --- | --- | --- |
| N#CCn1c(N2CC(C(F)(F)F)C2)c(-c2ccc(F)c(Cl)c2)c(=O)n(-c2cncc(OCF)c2)c1=O [Compound I-352] | – | < 10 | < 100 | – | – |
| N#CCn1c(N2CCC(C(F)(F)F)CC2)c(-c2ccc(F)c(C#N)c2)c(=O)n(-c2cncc(Cl)c2)c1=O [Compound I-402] | – | < 10 | < 100 | – | – |
| N#CCn1c(-c2cc3ccccc3s2)c(Sc2cc(F)c(F)c(F)c2)c(=O)n(-c2cncc(Cl)c2)c1=O [Compound I-168] | – | 10 to 100 | – | < 100 | – |
| Cc1cncc(-n2c(=O)c(-c3ccc(F)c(Cl)c3)c(Oc3ccc(F)cc3Cl)n(CC#N)c2=O)c1 [Compound I-030] | < 100 | < 10 | – | – | – |
| Cc1cncc(-n2c(=O)c(-c3ccc(F)c(Cl)c3)c(N3Cc4cn[nH]c4C3)n(CC#N)c2=O)c1 [Compound I-074] | < 100 | < 10 | – | – | – |
| Cc1cncc(-n2c(=O)c(-c3ccc(F)c(Cl)c3)c(N3C[C@H]4C[C@@H]3CO4)n(CC#N)c2=O)c1 [Compound I-226] | – | < 10 | < 100 | – | – |
| Cc1cncc(-n2c(=O)c(-c3ccc(F)c(Cl)c3)c(-c3cc4ccccc4[nH]3)n(CC#N)c2=O)c1 [Compound I-026] | < 100 | < 10 | – | – | – |
| N#CCn1c(N2CC[C@H](C(=O)N3CC(F)(F)C3)C2)c(-c2ccc(F)c(Cl)c2)c(=O)n(-c2cncc(Cl)c2)c1=O [Compound I-235] | – | < 10 | < 100 | – | – |
| N#CCn1c(N2CC[C@@](O)(C(F)F)C2)c(-c2ccc(F)c(Cl)c2)c(=O)n(-c2cncc(C#N)c2)c1=O [Compound I-399] | – | < 10 | < 100 | – | – |
| Cc1cnnc(-n2c(=O)c(-c3ccc(F)c(Cl)c3)c(N3CC4(CCOC4)C3)n(CC#N)c2=O)c1 [Compound I-160] | < 100 | < 10 | – | – | – |
| N#CCn1c(N2CCC(C(F)(F)F)CC2)c(-c2ccc(F)c(Cl)c2)c(=O)n(-c2cnc3cc(F)ccn23)c1=O [Compound I-153] | < 100 | < 10 | – | – | – |
| N#CCn1cc(-c2ccc(F)c(Cl)c2)c(=O)n(-c2cncc(Cl)c2)c1=O [Compound I-281] | – | 10 to 100 | < 100 | – | – |
| N#CCn1c(N2CC(CO)C2)c(-c2ccc(F)c(Cl)c2)c(=O)n(-c2cncc(OCF)n2)c1=O [Compound I-409] | – | < 10 | < 100 | – | – |
| N#CCn1c(N2CC3(C2)CC(F)(F)C3)c(-c2ccc(F)c(Cl)c2)c(=O)n(-c2cncc(I)c2)c1=O [Compound I-363] | – | < 10 | < 100 | – | – |
| Cc1cc(-n2c(=O)c(-c3ccc(F)c(Cl)c3)c(N3CC4(C3)CC(F)(F)C4)n(CC#N)c2=O)cc(=O)[nH]1 [Compound I-163] | 100 to 1000 | < 10 | – | – | – |
| Cc1cncc(-n2c(=O)c(Cc3cc(F)c(F)c(F)c3)c(N3CCC(C(F)F)C3)n(CC#N)c2=O)c1 (racemic) [Compound I-107] | < 100 | < 10 | – | – | – |
| N#CCn1c(N2CC3(CCOC3)C2)c(-c2ccc(F)c(Cl)c2)c(=O)n(-c2cnc3cc(Cl)ccn23)c1=O [Compound I-131] | < 100 | < 10 | – | – | – |
| Cn1cnc(Cn2c(=O)c(Cc3cc(F)c(F)c(F)c3)c(N3CCc4ccccc4C3)n(CC#N)c2=O)n1 [Compound I-006] | 100 to 1000 | > 100 | – | – | – |
| N#CCn1c(N2CCC3(CNC(=O)C3)C2)c(-c2ccc(F)c(Cl)c2)c(=O)n(-c2cncc(Cl)c2)c1=O (racemic) [Compound I-063] | 100 to 1000 | < 10 | – | – | – |
| Cc1c(-c2ccc(F)c(Cl)c2)c(=O)n(-c2cncc(Cl)c2)c(=O)n1CC(N)=O [Compound I-441] | – | 10 to 100 | < 100 | – | – |
| N#CCn1c(N2CC(F)(C3CC3)C2)c(-c2ccc(F)c(Cl)c2)c(=O)n(-c2cncc(OCF)c2)c1=O [Compound I-347] | – | < 10 | < 100 | – | – |
| CC1(C)[C@@H]2CN(c3c(-c4cccc(Cl)c4)c(=O)n(-c4cncc(Cl)c4)c(=O)n3CC#N)C[C@@H]21 [Compound I-178] | < 100 | < 10 | – | – | – |
| Cc1c(-c2ccc(F)c(Cl)c2)c(=O)n(-c2cncc(Cl)c2)c(=O)n1CC#N [Compound I-299] | – | < 10 | < 100 | – | – |
| COc1ccc(Oc2c(-c3cccc4ccccc34)c(=O)n(-c3cncc(C)c3)c(=O)n2CC#N)cc1 [Compound I-009] | 100 to 1000 | > 100 | – | – | – |
| Cc1cc(-n2c(=O)c(-c3ccc(F)c(Cl)c3)c(N3CCC(C)(C)CC3)n(CC#N)c2=O)cc(=O)[nH]1 [Compound I-170] | – | 10 to 100 | – | < 100 | – |
